Measurements as given in PMC6373673, “Purified PEGylated human glucagon-like peptide-2 reduces the severity of irradiation-induced acute radiation enteritis in rats” (Journal of Radiation Research, 2018).

What was measured:
[1] = system: irradiation-induced acute radiation enteritis in rats; experiment: Clinical, gross, histological and morphometric changes of the small intestine in irradiation-induced acute radiation enteritis; assay type: in vivo, Sprague Dawley (SD) rats; parameters: key to Shortening of villi (histologic) / Architectural disarray (histologic) / Diarrhea / Abdominal distention / Intestinal dilatation (gross) / Mucosal ulceration (gross) / Edema (gross): (–) = absent; (+) = present; conditions: SD rats, 8 Gy abdominal X-ray; for Crypt height / Height of villi: jejunum 48 h after, five microscopic fields per animal, ×100, mean ± SD; for Abdominal distention / Architectural disarray (histologic) / Diarrhea / Edema (gross) / Intestinal dilatation (gross) / Mucosal ulceration (gross) / Shortening of villi (histologic): killed 48 h after
Excerpt: (§1) Sixty adult male Sprague Dawley (SD) rats weighing 220–250 g were included in our study. Rats were subjected to 1 week of preliminary conditioning, during which time they received standard pellet rat chow and water ad libitum. They were housed in a temperature-and humidity-controlled environment, two animals per cage, with a 12-h light/12-h dark cycle. The Principles of Laboratory Animal Care (NIH Publication 85e23, revised 1996) were followed. Animal study protocols were approved by the Ethics Committee of the Fourth Military Medical University. The experiment was carried out at the Department of Pharmacy, Tangdu Hospital, Fourth Military Medical University.
(§2) X-ray irradiation was performed using a linear accelerator (Siemens primask) adjusted to provide X-ray irradiation, and carried out at the Department of Radiology and Oncology at the Tangdu Hospital. All of the animals were anesthetized with an intramuscular injection of pentobarbital sodium (100 mg/kg) and subjected to a single dose of 8 Gy abdominal X-radiation. The dose was delivered at a rate of 400 monitor units/min (1100 rad, 116.5 cGy/min, 100 cm source–skin distance) using a conventional radiation source, while the other parts of the body were carefully shielded.
Rats were randomized into six groups (Groups A–F). […] The remaining rats were subjected to a single dose of 8 Gy of abdominopelvic X-radiation and randomized further into five groups (Groups B–F). […] Briefly, rats were anesthetized with 100 mg/kg pentobarbital sodium, positioned supine, and subjected to a single fraction of 8 Gy delivered at a specific depth through abdominopelvic fields using X-rays at the rate of 0.74 Gy/min, while the other parts of the body were carefully shielded. Radiated rats were allowed to recover from the anesthetic and GLP-2 or Mono-PEG-hGLP-2 was administered by intraperitoneal injection. • Group A: non-X-ray irradiated (control). • Group B: X-ray irradiated. • Group C: pretreated with 3 μg of Mono-PEG-hGLP-2 in 0.3 ml of saline 5 min before X-ray irradiation. • Group D: pretreated with 10 μg of Mono-PEG-hGLP-2 in 0.3 ml of saline 5 min before X-ray irradiation. • Group E: pretreated with 30 μg of Mono-PEG-hGLP-2 in 0.3 ml of saline 5 min before X-ray irradiation. • Group F: pretreated with 30 μg of GLP-2 in 0.3 ml of saline 5 min before X-ray irradiation.
Animals were killed 48 h after X-ray irradiation, and laparotomies were performed. Immediately after the laparotomy, the small intestine (jejunum) was examined and removed. Two-centimeter segments of the jejunum and segments of the intestine showing edema and change in color (purple) were resected. Luminal contents were washed with 0.9% NaCl by injecting saline through the lumen of the small bowel segments. Tissue samples were pinned out on a paraffin block and floated upside down in 10% buffered formalin overnight, dehydrated, and embedded in paraffin. Sections of 4 μm were cut with a Leica sliding microtome (SM 2000R, Nussbach, Germany) and slides, containing a minimum of 10 sections, were stained with hematoxylin and erosin stains. Some representative intestine sections were processed for ultrastructural studies. Sections were evaluated quantitatively and qualitatively in a blinded fashion.
For histological assessment, villous height (from the base to the tip of the villi), crypt height (from the base to the tip of each crypt), and the number of villi per square millimeter was determined based on individual intestinal segments at five separate microscopic fields for each animal. They were recorded as the mean values using ocular micrometer-adapted light microscopy at a magnification of ×100.

NF-κB = NF-κB expression in intestine (immunohistochemistry and Western blot) after X-ray irradiation; assay type: in vivo, Sprague Dawley (SD) rats; conditions: SD rats, 8 Gy abdominal X-ray
Excerpt: as §1, §2
Rats were randomized into six groups (Groups A–F). […]
The expression of NF-κB was analyzed by Western blotting. […]

[2] = 3 μg i.p. 5 min before irradiation
[3] = 3 μg i.p. in 0.3 ml saline 5 min before irradiation
[4] = 10 μg i.p. in 0.3 ml saline 5 min before irradiation
[5] = 30 μg i.p. 5 min before irradiation
[6] = 30 μg i.p. in 0.3 ml saline 5 min before irradiation

Question: How did the Crypt height [1, 2] turn out when “Mono-PEG-hGLP-2: human GLP-2 peptide conjugated to one 5 kDa mPEG chain by reaction with mPEG5k-SPA” was run?
Answer: 121.6 ± 6.3 μm

Question: What about the Height of villi [1, 2] of the same substance?
Answer: 268.1 ± 11.6 μm

Question: And the Abdominal distention [1, 3]?
Answer: +

Question: And the “Architectural disarray (histologic)” value [1, 3]?
Answer: +

Question: What about the Diarrhea [1, 3] of the same substance?
Answer: –

Question: And the “Edema (gross)” value [1, 3]?
Answer: +

Question: What about the “Intestinal dilatation (gross)” value [1, 3] of the same substance?
Answer: +

Question: What about the “Mucosal ulceration (gross)” value [1, 3] of the same substance?
Answer: +

Question: What about the “Shortening of villi (histologic)” value [1, 3] of the same substance?
Answer: +

Question: And the Height of villi ([1]; 10 μg i.p. 5 min before irradiation)?
Answer: 437.1 ± 19.4 μm

Question: And the Abdominal distention [1, 4]?
Answer: –

Question: What about the “Architectural disarray (histologic)” value [1, 4] of the same substance?
Answer: –

Question: What about the Diarrhea [1, 4] of the same substance?
Answer: –

Question: What about the “Edema (gross)” value [1, 4] of the same substance?
Answer: +

Question: What about the “Intestinal dilatation (gross)” value [1, 4] of the same substance?
Answer: –

Question: And the “Mucosal ulceration (gross)” value [1, 4]?
Answer: –

Question: And the “Shortening of villi (histologic)” value [1, 4]?
Answer: +

Question: And the Crypt height [1, 5]?
Answer: 188.5 ± 8.3 μm

Question: And the Height of villi [1, 5]?
Answer: 507.9 ± 21.1 μm

Question: And the Abdominal distention [1, 6]?
Answer: –

Question: What about the “Architectural disarray (histologic)” value [1, 6] of the same substance?
Answer: –

Question: What about the Diarrhea [1, 6] of the same substance?
Answer: –

Question: And the “Edema (gross)” value [1, 6]?
Answer: –

Question: What about the “Intestinal dilatation (gross)” value [1, 6] of the same substance?
Answer: –

Question: What about the “Mucosal ulceration (gross)” value [1, 6] of the same substance?
Answer: –

Question: And the “Shortening of villi (histologic)” value [1, 6]?
Answer: –

Question: What about the “Protection against radiation-induced intestinal injury (villi integrity, histology)” value ([1]; i.p. pretreatment 5 min before irradiation, result in words) of the same substance?
Answer: markedly protected the integrity of the villi and preserved the villous height

Question: And the “NF-κB staining in intestine versus X-ray-alone-treated rats” value (NF-κB; 3, 10, 30 μg i.p. 5 min before irradiation, immunohistological staining)?
Answer: decreased NF-κB staining in a dose-dependent manner

Question: And the “NF-κB expression in intestine versus model” value (NF-κB; moderate to high doses (10, 30 μg i.p.) before irradiation, P < 0.01)?
Answer: significantly inhibited NF-κB expression
